How the values were obtained:
Assay in all cases: relative viability (nuclei count vs DMSO), 5 days (fraction); higher = more cells survive
[1] = compound: O=C(CCCCCCNC(=O)c1cnc(N(c2ccccc2)c2ccccc2)nc1)NO [Ricolinostat] + COc1cc2c(Oc3ccc(NC(=O)C4(C(=O)Nc5ccc(F)cc5)CC4)cc3F)ccnc2cc1OCCCN1CCOCC1 [Foretinib] (partner 0.25 µM)
Procedure, shortened: (§1)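 The day after seeding in 1536-well plates, lung cancer cell lines were treated by pin tool with a single drug, or with a fixed anchor-drug dose together with five library-drug doses (not always all listed) in √10 steps. After 5 days, a combined fix-and-stain solution (final 0.05% Triton X-100, 1% formaldehyde, 1 ug/ml Hoechst) was added. Nuclei counted on 4× images gave relative viability as treated counts over vehicle counts, reported as the median of duplicate plates.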

[2] = compound: O=C(CCCCCCNC(=O)c1cnc(N(c2ccccc2)c2ccccc2)nc1)NO [Ricolinostat] + CC(=O)c1c(C)c2cnc(Nc3ccc(N4CCNCC4)cn3)nc2n(C2CCCC2)c1=O [Palbociclib] (partner 0.5 µM)
Procedure, shortened: as §1

[3] = compound: CC1=CN2C(=O)C=C(N=C2C(=C1)C(C)NC3=CC=CC=C3)N4CCOCC4 [TGX 221] + COc1cccc2cc(-c3nc([C@H]4CC[C@H](C(=O)O)CC4)n4ncnc(N)c34)[nH]c12 [OSI-027] (partner 0.5 µM)
Procedure, shortened: as §1

[4] = compound: O=C(CCCCCCNC(=O)c1cnc(N(c2ccccc2)c2ccccc2)nc1)NO [Ricolinostat] + CS(=O)(=O)N1CCN(Cc2cc3nc(-c4cccc5[nH]ncc45)nc(N4CCOCC4)c3s2)CC1 [Pictilisib] (partner 1 µM)
Procedure, shortened: as §1

Cell Line | relative viability ([1]; first compound 0.08 µM) | relative viability ([1]; first compound 0.253 µM) | relative viability ([1]; first compound 0.8 µM) | relative viability ([1]; first compound 2.53 µM) | relative viability ([2]; first compound 0.08 µM) | relative viability ([2]; first compound 0.253 µM) | relative viability ([2]; first compound 0.8 µM) | relative viability ([2]; first compound 2.53 µM) | relative viability ([3]; first compound 0.08 µM) | relative viability ([3]; first compound 0.253 µM) | relative viability ([3]; first compound 0.8 µM) | relative viability ([3]; first compound 2.53 µM) | relative viability ([3]; first compound 8 µM) | relative viability ([4]; first compound 0.08 µM) | relative viability ([4]; first compound 0.253 µM) | relative viability ([4]; first compound 0.8 µM) | relative viability ([4]; first compound 2.53 µM)
LXF-289 | 0.987 | 0.895 | 0.947 | 0.967 | 0.618 | 0.552 | 0.599 | 0.609 | 0.817 | 0.809 | 0.756 | 0.754 | 0.757 | 0.702 | 0.809 | 0.804 | 0.554
NCI-H23 | 0.999 | 0.898 | 0.97 | 1.13 | 0.532 | 0.509 | 0.448 | 0.615 | 0.506 | 0.613 | 0.594 | 0.456 | 0.517 | 0.381 | 0.572 | 0.475 | 0.309
NCI-H322M | – | 0.964 | 0.893 | 0.928 | 0.495 | 0.493 | 0.478 | 0.52 | 0.541 | 0.515 | 0.551 | 0.507 | 0.567 | – | 0.558 | 0.561 | 0.568
NCI-H358 | 0.594 | 0.636 | 0.631 | 0.503 | 0.151 | 0.147 | 0.173 | 0.165 | 0.716 | 0.719 | 0.756 | 0.739 | 0.583 | 0.213 | 0.495 | 0.463 | 0.539
NCI-H441 | – | 0.878 | 0.872 | 0.921 | 0.213 | 0.233 | 0.2 | 0.234 | 0.58 | 0.698 | 0.576 | 0.728 | 0.665 | 0.42 | 0.55 | 0.426 | 0.453
NCI-H460 | 0.972 | 0.927 | 1.04 | 1.04 | 0.184 | 0.191 | 0.0967 | 0.0766 | 0.666 | 0.566 | 0.713 | 0.56 | 0.504 | 0.332 | 0.393 | 0.308 | 0.269
NCI-H520 | – | 0.889 | 0.89 | 0.688 | – | 0.256 | 0.262 | 0.27 | 0.212 | 0.165 | 0.227 | 0.188 | 0.195 | – | 0.218 | 0.272 | 0.23
NCI-H647 | 1 | 1 | 1.01 | 1.02 | 0.391 | 0.338 | 0.407 | 0.266 | 0.475 | 0.562 | 0.483 | 0.517 | 0.425 | – | 0.42 | 0.415 | 0.456
NCI-H650 | 0.957 | 0.997 | 0.872 | 0.8 | 0.33 | 0.356 | 0.32 | 0.253 | 0.519 | 0.515 | 0.445 | 0.527 | 0.504 | – | 0.766 | 0.77 | 0.506
NCI-H661 | 0.849 | 0.983 | 1 | 0.81 | 0.426 | 0.381 | 0.415 | 0.364 | 0.748 | 0.695 | 0.689 | 0.673 | 0.706 | – | 0.412 | 0.422 | 0.727
NCI-H727 | 0.746 | 0.741 | 0.948 | 0.884 | 0.645 | 0.627 | 0.705 | 0.683 | 0.556 | 0.478 | 0.693 | 0.529 | 0.566 | 0.305 | 0.409 | 0.623 | 0.291
NCI-H838 | 0.9 | 1.07 | 1.06 | 0.941 | 0.202 | 0.262 | 0.182 | 0.235 | 0.399 | 0.326 | 0.326 | 0.365 | 0.355 | 0.326 | 0.563 | 0.613 | 0.531
NCI-H1355 | 0.953 | 0.978 | 0.976 | 0.873 | 0.373 | 0.367 | 0.31 | 0.402 | 0.377 | 0.427 | 0.385 | 0.314 | 0.331 | – | 0.418 | 0.419 | 0.316
NCI-H1395 | – | 0.954 | 1.07 | 1.06 | – | 0.603 | 0.662 | 0.702 | 0.542 | 0.525 | 0.61 | 0.475 | 0.544 | – | 0.636 | 0.511 | 0.597
NCI-H1437 | 1.12 | 1.28 | 1.17 | 1.05 | 0.357 | 0.311 | 0.282 | 0.227 | 0.878 | 0.899 | 0.809 | 0.848 | 0.728 | 0.38 | 0.414 | 0.36 | 0.223
NCI-H1650 | 1.17 | 1.05 | 0.886 | 0.635 | 0.322 | 0.294 | 0.344 | 0.275 | 0.648 | 0.55 | 0.737 | 0.661 | 0.529 | 0.423 | 0.523 | 0.395 | 0.347
NCI-H1651 | 0.852 | 0.812 | 0.746 | 0.776 | 0.499 | 0.512 | 0.512 | 0.542 | 0.555 | 0.632 | 0.63 | 0.59 | 0.586 | 0.612 | 0.55 | 0.571 | 0.44
NCI-H1666 | 0.967 | 1.01 | 1.02 | 0.914 | 0.741 | 0.664 | 0.644 | 0.598 | 0.836 | 0.81 | 0.831 | 0.819 | 0.887 | 0.445 | 0.52 | 0.378 | 0.305
